Among the data in the supplement of paper PMC10307832 are relative viability values, retold here.

Holding throughout (assay): relative viability (nuclei count vs DMSO), 5 days (fraction); higher = more cells survive
Compound in the assay “17-AAG + Pemetrexed”: C=CCNC1=C2C[C@@H](C)C[C@H](OC)[C@H](O)[C@@H](C)/C=C(\C)[C@H](OC(N)=O)[C@@H](OC)/C=C\C=C(/C)C(=O)NC(=CC1=O)C2=O [17-AAG] + Nc1nc2[nH]cc(CCc3ccc(C(=O)N[C@@H](CCC(=O)O)C(=O)O)cc3)c2c(=O)[nH]1 [Pemetrexed] (partner 0.2 µM)
In outline:
(§1)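 After 5 days of treatment, lung cancer cells in 1536-well plates were fixed and stained in a single step (final 0.05% Triton X-100, 1% formaldehyde, 1 ug/ml Hoechst) and their nuclei counted on 4× images. Treatment had been applied by pin tool the day after seeding as one drug alone or as a fixed anchor-drug dose with five library-drug doses (not always all listed) in √10 steps. Relative viability is the nuclei count of treated wells divided by that of vehicle wells, and values are medians of duplicate plates.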

Compound in the assay “17-AAG + Foretinib”: C=CCNC1=C2C[C@@H](C)C[C@H](OC)[C@H](O)[C@@H](C)/C=C(\C)[C@H](OC(N)=O)[C@@H](OC)/C=C\C=C(/C)C(=O)NC(=CC1=O)C2=O [17-AAG] + COc1cc2c(Oc3ccc(NC(=O)C4(C(=O)Nc5ccc(F)cc5)CC4)cc3F)ccnc2cc1OCCCN1CCOCC1 [Foretinib] (partner 0.25 µM)
In outline: as §1

Compound in the assay “17-AAG + Alpelisib”: C=CCNC1=C2C[C@@H](C)C[C@H](OC)[C@H](O)[C@@H](C)/C=C(\C)[C@H](OC(N)=O)[C@@H](OC)/C=C\C=C(/C)C(=O)NC(=CC1=O)C2=O [17-AAG] + Cc1nc(NC(=O)N2CCC[C@H]2C(N)=O)sc1-c1ccnc(C(C)(C)C(F)(F)F)c1 [Alpelisib] (partner 2 µM)
In outline:
as §1

Compound in the assay “17-AAG + Olaparib”: C=CCNC1=C2C[C@@H](C)C[C@H](OC)[C@H](O)[C@@H](C)/C=C(\C)[C@H](OC(N)=O)[C@@H](OC)/C=C\C=C(/C)C(=O)NC(=CC1=O)C2=O [17-AAG] + O=C(c1cc(Cc2n[nH]c(=O)c3ccccc23)ccc1F)N1CCN(C(=O)C2CC2)CC1 [Olaparib] (partner 8 µM)
Put shortly: as §1

Take NCI-H2023: the relative viability with 17-AAG + Pemetrexed (first compound 0.00128 µM) was found to be 0.268; in the assay with 17-AAG + Pemetrexed (first compound 0.004048 µM) it was 0.137; with 17-AAG + Pemetrexed (first compound 0.0128 µM) it was 0.0942; with 17-AAG + Pemetrexed (first compound 0.04048 µM) it was 0.0647; with 17-AAG + Pemetrexed (first compound 0.128 µM), 0.0873; in the assay with 17-AAG + Foretinib (first compound 0.00128 µM), 0.93. Further, the relative viability turned out to be 0.672 in the assay with 17-AAG + Foretinib (first compound 0.004048 µM); 0.297 with 17-AAG + Foretinib (first compound 0.0128 µM); 0.0761 with 17-AAG + Foretinib (first compound 0.04048 µM); 0.0537 with 17-AAG + Foretinib (first compound 0.128 µM); 0.582 in the assay with 17-AAG + Alpelisib (first compound 0.00128 µM); 0.66 with 17-AAG + Alpelisib (first compound 0.004048 µM). Further, the relative viability amounted to 0.273 with 17-AAG + Alpelisib (first compound 0.0128 µM); 0.0878 with 17-AAG + Alpelisib (first compound 0.04048 µM); 0.0906 in the assay with 17-AAG + Alpelisib (first compound 0.128 µM); 0.472 with 17-AAG + Olaparib (first compound 0.00128 µM); 0.163 in the assay with 17-AAG + Olaparib (first compound 0.004048 µM); 0.0796 with 17-AAG + Olaparib (first compound 0.0128 µM). The values for the relative viability with 17-AAG + Olaparib (first compound 0.04048 µM) and in the assay with 17-AAG + Olaparib (first compound 0.128 µM) were 0.0702 and 0.0752, respectively.
Consider COR-L 105, for which the relative viability amounted to 1.17 in the assay with 17-AAG + Pemetrexed (first compound 0.00128 µM); 1.32 with 17-AAG + Pemetrexed (first compound 0.004048 µM); 1.02 in the assay with 17-AAG + Pemetrexed (first compound 0.0128 µM); 0.968 in the assay with 17-AAG + Pemetrexed (first compound 0.04048 µM); 0.687 with 17-AAG + Pemetrexed (first compound 0.128 µM); 0.965 with 17-AAG + Foretinib (first compound 0.00128 µM). The relative viability was determined as 1 in the assay with 17-AAG + Foretinib (first compound 0.004048 µM); 0.805 in the assay with 17-AAG + Foretinib (first compound 0.0128 µM); 0.715 with 17-AAG + Foretinib (first compound 0.04048 µM); 0.31 with 17-AAG + Foretinib (first compound 0.128 µM); 1.08 in the assay with 17-AAG + Alpelisib (first compound 0.00128 µM); 0.898 with 17-AAG + Alpelisib (first compound 0.004048 µM). The relative viability stood at 1.19 in the assay with 17-AAG + Alpelisib (first compound 0.0128 µM); 0.746 with 17-AAG + Alpelisib (first compound 0.04048 µM); 0.817 with 17-AAG + Alpelisib (first compound 0.128 µM); 0.601 with 17-AAG + Olaparib (first compound 0.00128 µM); 0.71 with 17-AAG + Olaparib (first compound 0.004048 µM); 0.778 with 17-AAG + Olaparib (first compound 0.0128 µM). Besides, the relative viability was found to be 0.55 with 17-AAG + Olaparib (first compound 0.04048 µM) and 0.515 with 17-AAG + Olaparib (first compound 0.128 µM).
On to NCI-H1734, for which the relative viability is 0.4 with 17-AAG + Pemetrexed (first compound 0.00128 µM); 0.474 in the assay with 17-AAG + Pemetrexed (first compound 0.004048 µM); 0.475 in the assay with 17-AAG + Pemetrexed (first compound 0.0128 µM); 0.261 with 17-AAG + Pemetrexed (first compound 0.04048 µM); 0.161 with 17-AAG + Pemetrexed (first compound 0.128 µM); 0.895 with 17-AAG + Foretinib (first compound 0.00128 µM). In addition, the relative viability with 17-AAG + Foretinib (first compound 0.004048 µM) is 0.951; in the assay with 17-AAG + Foretinib (first compound 0.0128 µM), 0.856; with 17-AAG + Foretinib (first compound 0.04048 µM), 0.282; in the assay with 17-AAG + Foretinib (first compound 0.128 µM), 0.18; in the assay with 17-AAG + Alpelisib (first compound 0.00128 µM), 0.708; with 17-AAG + Alpelisib (first compound 0.004048 µM), 0.759. Moreover, the relative viability amounted to 0.716 in the assay with 17-AAG + Alpelisib (first compound 0.0128 µM); 0.289 with 17-AAG + Alpelisib (first compound 0.04048 µM); 0.16 with 17-AAG + Alpelisib (first compound 0.128 µM); 0.558 with 17-AAG + Olaparib (first compound 0.00128 µM); 0.686 with 17-AAG + Olaparib (first compound 0.004048 µM); 0.59 with 17-AAG + Olaparib (first compound 0.0128 µM). For the same cell line, the results for the relative viability with 17-AAG + Olaparib (first compound 0.04048 µM) and in the assay with 17-AAG + Olaparib (first compound 0.128 µM) were 0.255 and 0.119, respectively.
As to NCI-H322M, the relative viability in the assay with 17-AAG + Pemetrexed (first compound 0.00128 µM) came out at 0.659; with 17-AAG + Pemetrexed (first compound 0.004048 µM) it was 0.652; with 17-AAG + Pemetrexed (first compound 0.0128 µM), 0.42; with 17-AAG + Pemetrexed (first compound 0.04048 µM), 0.348; in the assay with 17-AAG + Pemetrexed (first compound 0.128 µM), 0.366; with 17-AAG + Foretinib (first compound 0.00128 µM), 0.971. In addition, the relative viability is 1.04 with 17-AAG + Foretinib (first compound 0.004048 µM); 0.577 with 17-AAG + Foretinib (first compound 0.0128 µM); 0.306 in the assay with 17-AAG + Foretinib (first compound 0.04048 µM); 0.323 with 17-AAG + Foretinib (first compound 0.128 µM); 0.826 in the assay with 17-AAG + Alpelisib (first compound 0.00128 µM); 0.865 with 17-AAG + Alpelisib (first compound 0.004048 µM). In addition, the relative viability came out at 0.796 with 17-AAG + Alpelisib (first compound 0.0128 µM); 0.548 in the assay with 17-AAG + Alpelisib (first compound 0.04048 µM); 0.382 with 17-AAG + Alpelisib (first compound 0.128 µM); 0.781 in the assay with 17-AAG + Olaparib (first compound 0.00128 µM); 0.857 with 17-AAG + Olaparib (first compound 0.004048 µM); 0.409 in the assay with 17-AAG + Olaparib (first compound 0.0128 µM). Also, the relative viability turned out to be 0.418 in the assay with 17-AAG + Olaparib (first compound 0.04048 µM) and 0.414 in the assay with 17-AAG + Olaparib (first compound 0.128 µM).
With CAL-12T, the relative viability worked out at 1.17 with 17-AAG + Pemetrexed (first compound 0.00128 µM); 0.951 in the assay with 17-AAG + Pemetrexed (first compound 0.004048 µM); 1.15 with 17-AAG + Pemetrexed (first compound 0.0128 µM); 1.04 with 17-AAG + Pemetrexed (first compound 0.04048 µM); 0.207 in the assay with 17-AAG + Pemetrexed (first compound 0.128 µM); 1.12 with 17-AAG + Foretinib (first compound 0.00128 µM). Moreover, the relative viability is 1.07 with 17-AAG + Foretinib (first compound 0.004048 µM); 1.08 with 17-AAG + Foretinib (first compound 0.0128 µM); 0.608 with 17-AAG + Foretinib (first compound 0.04048 µM); 0.202 with 17-AAG + Foretinib (first compound 0.128 µM); 1.43 in the assay with 17-AAG + Alpelisib (first compound 0.00128 µM); 1.09 in the assay with 17-AAG + Alpelisib (first compound 0.004048 µM). Further, the relative viability with 17-AAG + Alpelisib (first compound 0.0128 µM) was found to be 0.993; in the assay with 17-AAG + Alpelisib (first compound 0.04048 µM), 0.706; with 17-AAG + Alpelisib (first compound 0.128 µM), 0.658; with 17-AAG + Olaparib (first compound 0.00128 µM), 0.754; with 17-AAG + Olaparib (first compound 0.004048 µM) it was 0.697; in the assay with 17-AAG + Olaparib (first compound 0.0128 µM), 0.725. In addition, the relative viability in the assay with 17-AAG + Olaparib (first compound 0.04048 µM) was 0.371; with 17-AAG + Olaparib (first compound 0.128 µM), 0.211.
HCC-78: the relative viability with 17-AAG + Pemetrexed (first compound 0.00128 µM) was found to be 0.902; with 17-AAG + Pemetrexed (first compound 0.004048 µM), 0.926; with 17-AAG + Pemetrexed (first compound 0.0128 µM), 0.919; with 17-AAG + Pemetrexed (first compound 0.04048 µM), 0.879; with 17-AAG + Pemetrexed (first compound 0.128 µM), 0.836; in the assay with 17-AAG + Foretinib (first compound 0.00128 µM), 0.525. Besides, the relative viability with 17-AAG + Foretinib (first compound 0.004048 µM) amounted to 0.574; with 17-AAG + Foretinib (first compound 0.0128 µM), 0.611; in the assay with 17-AAG + Foretinib (first compound 0.04048 µM), 0.516; with 17-AAG + Foretinib (first compound 0.128 µM), 0.499; with 17-AAG + Alpelisib (first compound 0.00128 µM), 0.418; with 17-AAG + Alpelisib (first compound 0.0128 µM), 0.446. Further, the relative viability with 17-AAG + Alpelisib (first compound 0.04048 µM) turned out to be 0.326; with 17-AAG + Alpelisib (first compound 0.128 µM) it was 0.294; with 17-AAG + Olaparib (first compound 0.00128 µM), 0.806; with 17-AAG + Olaparib (first compound 0.004048 µM) it was 0.832; with 17-AAG + Olaparib (first compound 0.0128 µM), 1.07; with 17-AAG + Olaparib (first compound 0.04048 µM), 0.681. Also, the relative viability in the assay with 17-AAG + Olaparib (first compound 0.128 µM) was found to be 0.308.
In the case of NCI-H2085, the relative viability with 17-AAG + Pemetrexed (first compound 0.00128 µM) is 0.944; in the assay with 17-AAG + Pemetrexed (first compound 0.004048 µM) it was 0.923; in the assay with 17-AAG + Pemetrexed (first compound 0.0128 µM), 0.911; in the assay with 17-AAG + Pemetrexed (first compound 0.04048 µM), 0.877; with 17-AAG + Pemetrexed (first compound 0.128 µM) it was 0.828; in the assay with 17-AAG + Foretinib (first compound 0.00128 µM), 0.92. The relative viability in the assay with 17-AAG + Foretinib (first compound 0.004048 µM) was 0.834; with 17-AAG + Foretinib (first compound 0.0128 µM) it was 1.06; with 17-AAG + Foretinib (first compound 0.04048 µM), 0.844; with 17-AAG + Foretinib (first compound 0.128 µM), 0.563; with 17-AAG + Alpelisib (first compound 0.00128 µM), 0.825; with 17-AAG + Alpelisib (first compound 0.004048 µM), 1. In addition, the relative viability with 17-AAG + Alpelisib (first compound 0.0128 µM) worked out at 0.934; with 17-AAG + Alpelisib (first compound 0.04048 µM), 0.852; with 17-AAG + Alpelisib (first compound 0.128 µM), 0.671; with 17-AAG + Olaparib (first compound 0.00128 µM) it was 0.869; with 17-AAG + Olaparib (first compound 0.004048 µM) it was 0.76; with 17-AAG + Olaparib (first compound 0.0128 µM), 0.78. The relative viability with 17-AAG + Olaparib (first compound 0.04048 µM) is 0.748; with 17-AAG + Olaparib (first compound 0.128 µM) it was 0.674.
